The test system of experiment [1] is human peripheral blood mononuclear cells. As to the kind of experiment: Inhibition of R848-induced TNF-α production from human peripheral blood mononuclear cells by BDCA2-ADC. The class given is cell-based. The conditions noted are these: 5 μM R848, 24 h. The procedure: The inhibitory effects of the antibody-drug conjugate molecules of the present application on the production from peripheral blood mononuclear cells were detected. Peripheral blood mononuclear cells produce a large number of cytokines after the stimulation of the TLR7/8 agonist R848. The peripheral blood mononuclear cells were treated in vitro with the BDCA2 antibody-drug conjugate at different concentrations, and IFNα and TNFα produced by the peripheral blood mononuclear cells were quantitatively detected after the stimulation of 5 μM R848 for a certain period of time. The in vitro activity of the ligand-drug conjugates was evaluated based on the extent of cytokine inhibition.
The cryopreserved human peripheral blood mononuclear cells were thawed, resuspended in a complete culture medium and counted, and the cell suspension was adjusted to 2.5×10^6 cells/mL with the culture medium and cultured overnight. […] The supernatant was collected, and the TNF-α and IFN-α concentration levels in the supernatant were detected using an ELISA kit. Dose-response data were fitted to an S-shaped curve using non-linear regression, and IC50 values were calculated.
TNF-α concentration assay was performed using a Dakewe TNF-α ELISA kit (Cat. No. 1117202). […] The reading at wavelength 450 nm was detected using an M2e instrument within 10 min after the termination. […]

The next experiment concerns human PBMC cells. Briefly: Inhibition by humanized antibodies of IFNα release from human PBMC cells stimulated by CpG-A. Type of experiment: cell-based. The conditions noted are these: Table 4, humanized antibodies; read-out: EC50, inhibition of release of cytokine IFNα from human PBMC cells stimulated by CpG-A. The procedure:
A series of humanized candidate antibody molecules were selected and subjected to the function detection of inhibiting the release of the cytokine IFNα from the human PBMC cells stimulated by CpG-A. The cryopreserved human PBMC cells were thawed and incubated in a complete culture medium (1640+10% FBS+1×NEAA+1×L-Glutamine) overnight for 18 h. The next day, the PBMC cells were collected and centrifuged at 600 g for 8 min, and the supernatant was discarded. The cells were resuspended to 8×10^6 cells/mL in a culture medium (1640+10% FBS), and the mixture was added to a 3799 cell culture plate at 100 μL/well. The test antibody was diluted in a 10-fold gradient (0.0001 nM-10 nM, and 0 concentration point was used as a control) with the culture medium (1640+10% FBS), and the diluted antibody was added to the PBMCs at 50 μL/well. The cells were resuspended and then incubated at 37° C. for 6 h. 50 μL of CpG-A (2 μM, Invitrogen, tlrl-2216-5) diluted in the culture medium (1640+10% FBS) was added to each well and mixed, followed by incubation at 37° C. for another 20 h. […]
The antibody MT1/3/5 (Mabtech, 3425-1H-20) was diluted to 4 μg/mL with PBS, and added to a CORNING ELISA plate at 100 μL/well. […] The values at OD450 nm were read on an ELISA plate reader, and curves were fitted using GraphPad Prism6. […]

On to “BIIB059: reference antibody specifically binding to BDCA2, sequence derived from U.S. Pat. No. 9,902,775B2; SEQ ID NO: 25 and 26 [reference compound]”, for which the “inhibitory effect on TNF-α secretion” value in experiment [1] is given as “did not have an inhibitory effect”. The EC50 in the experiment on human PBMC cells was determined as 0.04 nM.

(Values after patent publication US20260216362A1, “ANTI-BDCA2 ANTIBODY-DRUG CONJUGATE AND USE THEREOF” (DUALITY BIOLOGICS (SHANGHAI) CO., LTD., priority 2022, published 2026).)
